Assay results published in patent US8163909B2, “Substituted hydroxyethyl amine compounds as beta-secretase modulators and methods of use” (Amgen Inc., priority 2007, dated 2012).
Like-named read-outs stand apart in the source and are kept apart here.

Key:
[1] = system: Aβ40 in conditioned medium of cells stably expressing Amyloid Precursor Protein (APP); experiment: In vitro BACE cell-based assay (Aβ40 in conditioned medium, sandwich ELISA);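 further: compounds added as a dilution series, secreted peptide quantified by europium time-resolved fluorescence readout, potency fitted from percent of control versus compound concentration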
[2] = target: Beta Secretase enzyme (BACE) (Homo sapiens, UniProt P56817); experiment: In vitro enzymatic BACE FRET (fluorescence resonance energy transfer) assay; type: biochemical;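 further: fluorescence read after 1 h with 50 nM quenched peptide substrate spanning the BACE cleavage site, in pH 4.2 acetate buffer containing 10% DMSO and nonionic detergent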
[3] = Homo sapiens, HEK293, HEK cells, cell-based assay, read-out: HEK cell assay (IC50)
[4] = BACE enzyme assay, read-out: BACE1 FRET assay (IC50)
[5] = BACE enzyme FRET assay, read-out: BACE1 FRET assay (IC50)
[6] = Homo sapiens, HEK293, HEK cell-based assay, IC50's in uM, read-out: HEK cell assay
[7] = BACE enzyme assay, IC50's in uM, read-out: BACE1 FRET assay
[8] = Homo sapiens, HEK293, Table 1, HEK cells, read-out: HEK cell assay
[9] = Table 1, read-out: BACE1 FRET assay
[10] = HEK cells, cell-based assay, read-out: HEK cell assay (IC50)
[11] = Homo sapiens, HEK293, cell-based assay, HEK cells, IC50's in uM, read-out: HEK cell assay

Chain of Beta Secretase enzyme (BACE) (P56817 46-501): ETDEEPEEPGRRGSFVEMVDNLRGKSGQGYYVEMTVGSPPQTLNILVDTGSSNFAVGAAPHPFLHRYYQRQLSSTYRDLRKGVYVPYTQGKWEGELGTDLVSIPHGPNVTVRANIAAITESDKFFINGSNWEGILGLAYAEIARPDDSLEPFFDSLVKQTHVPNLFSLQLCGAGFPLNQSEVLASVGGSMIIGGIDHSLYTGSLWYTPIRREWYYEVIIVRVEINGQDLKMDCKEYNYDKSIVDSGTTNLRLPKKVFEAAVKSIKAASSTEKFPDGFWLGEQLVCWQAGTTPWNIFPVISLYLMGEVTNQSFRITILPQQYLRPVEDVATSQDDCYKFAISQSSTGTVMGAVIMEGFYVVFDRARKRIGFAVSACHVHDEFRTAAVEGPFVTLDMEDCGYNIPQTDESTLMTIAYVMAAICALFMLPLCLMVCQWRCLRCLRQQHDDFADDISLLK

Compound: COCC(=O)NC(Cc1ccc2c(c1)OCO2)C(O)CNC1CC2(CC(C)C2)Oc2ncc(CC(C)C)cc21 [compound 133, N-((1S,2R)-1-(1,3-benzodioxol-5-ylmethyl)-2-hydroxy-3-(((1s,3R,4′S)-3-methyl-6′-(2-methylpropyl)-3′,4′-dihydrospiro[cyclobutane-1,2′-pyrano[2,3-b]pyridin]-4′-yl)amino)propyl)-2-(methyloxy)acetamide]
- IC50 [1, 3]: 0.143 µM
- IC50 [2, 4]: 0.0398 µM

Compound: CNc1nc(CC(C)(C)C)cc2c1OC1(CCC1)C[C@@H]2N(C)C[C@@H](O)[C@H](Cc1ccc2c(c1)OCO2)NC(=O)[C@@H](C)OC [compound 145]
- IC50 [1, 3]: 0.777 µM
- IC50 [2, 4]: 0.298 µM

Compound: CO[C@H](C)C(=O)N[C@@H](Cc1cccc(F)c1)[C@H](O)CN[C@H]1CC2(CCC2)Oc2c(-c3ccncc3)cc(CC(C)(C)F)cc21 [compound 564]
- IC50 ([1]; Homo sapiens, HEK293, HEK cells, read-out: HEK cell assay): 0.029 µM
- IC50 ([2]; BACE enzyme assay, read-out: BACE1 FRET assay): 0.032 µM

Compound: CC(=O)N[C@@H](Cc1ccc(F)cc1)[C@H](O)CN[C@H]1CC2(CCC2)Oc2ncc(CC3(C(F)(F)F)CC3)cc21 [compound 310]
- IC50 [1, 3]: 0.166 µM
- IC50 [2, 5]: 0.0505 µM

Compound: CCC(=O)N[C@@H](Cc1ccc2c(c1)OCO2)[C@H](O)CN[C@H]1CC2(CCC2)Oc2ncc(CC(C)(C)C)cc21 [compound 828]
- IC50 [1, 6]: 0.014 µM
- IC50 [2, 7]: 0.012 µM

Compound: COCC(=O)N[C@@H](Cc1ccc(F)cc1)[C@H](O)CN[C@H]1CC2(CCC2)Oc2ncc(CC3(C(F)(F)F)CC3)cc21 [compound 311]
- IC50 [1, 3]: 0.307 µM
- IC50 [2, 5]: 0.0515 µM

Compound: CC(C)(C)Cc1cnc2c(c1)[C@@H](NC[C@@H](O)[C@H](Cc1ccc(F)cc1)NC(=O)C(F)C(F)(F)F)CC1(CCC1)O2 (some centres unmarked) [compound 158]
- IC50 [1, 3]: 0.241 µM
- IC50 [2, 4]: 0.0504 µM

Compound: CC(C)(C)Cc1cnc2c(c1)[C@@H](NC[C@@H](O)[C@H](Cc1ccc3c(c1)OCO3)NC(=O)[C@@H]1CCCO1)CC1(CCC1)O2 [compound 453]
- IC50 ([1]; Homo sapiens, HEK293, Table 2, HEK cells, read-out: HEK cell assay): 0.037 µM
- IC50 ([2]; Table 2, read-out: BACE1 FRET assay): 0.022 µM

Compound: COCC(=O)N[C@@H](Cc1cccc(F)c1)[C@H](O)CN[C@H]1CC2(CCC2)Oc2ncc(CC(C)(F)F)cc21 [compound 278]
- IC50 [1, 3]: 0.00822 µM
- IC50 [2, 5]: 0.00676 µM

Compound: CO[C@H](C)C(=O)N[C@@H](Cc1ccc(F)c(Cl)c1)[C@H](O)CN[C@H]1CC2(CCC2)Oc2ncc(CC(C)(C)F)cc21 [compound 72]
- IC50 [1, 3]: 0.0605 µM
- IC50 [2, 4]: 0.0291 µM

Compound: CC(=O)N[C@@H](Cc1cccc(F)c1)[C@H](O)CN[C@H]1CC2(CCC2)Oc2ncc(OC(C)(F)F)cc21 [compound 151, N-((1S,2R)-3-(((4′S)-6′-((1,1-difluoroethyl)oxy)-3′,4′-dihydrospiro[cyclobutane-1,2′-pyrano[2,3-b]pyridin]-4′-yl)amino)-1-((3-fluorophenyl)methyl)-2-hydroxypropyl)acetamide]
- IC50 [1, 3]: 0.0841 µM
- IC50 [2, 4]: 0.0205 µM

Compound: COCC(=O)N[C@@H](Cc1ccc(F)c(Br)c1)[C@H](O)CN[C@H]1CC2(CCC2)Oc2ncc(CC(C)(C)C)cc21 [compound 352]
- IC50 [1, 8]: 0.0176 µM
- IC50 [2, 9]: 0.00371 µM

Compound: CC(=O)N[C@@H](Cc1ccc(F)cc1)[C@H](O)CN[C@H]1CC2(CCC2)Oc2ncc(NC(=O)C(C)(C)C)cc21 [compound 84]
- IC50 [1, 3]: > 10 µM
- IC50 [2, 4]: 4.87 µM

Compound: CO[C@@H](C)C(=O)N[C@@H](Cc1ccc(F)cc1)[C@H](O)CN[C@H]1CC2(CCC2)Oc2c(F)cc(CC(C)(C)C)cc21 [compound 175]
- IC50 [1, 3]: 0.229 µM
- IC50 [2, 4]: 0.0173 µM

Compound: CNc1nc(CC(C)(C)C)cc2c1OC1(CCC1)C[C@@H]2NC[C@@H](O)[C@H](Cc1cccc(F)c1)NC(=O)COC [compound 148]
- IC50 [1, 3]: 0.00654 µM
- IC50 [2, 4]: 0.0387 µM

Compound: CC(=O)N[C@@H](Cc1ccc2c(c1)OC(F)(F)O2)[C@H](O)CN[C@H]1CC2(CCC2)Oc2ncc(CC(C)(C)C)cc21 [compound 292]
- IC50 [1, 3]: 0.159 µM
- IC50 [2, 5]: 0.0325 µM

Compound: COCC(=O)N[C@@H](Cc1ccc(F)cc1)[C@H](O)CN[C@H]1CC2(CCC2)Oc2ccc(CC(C)(C)C)nc21 [compound 123, N-((1S,2R)-3-(((4′S)-6′-(2,2-dimethylpropyl)-3′,4′-dihydrospiro[cyclobutane-1,2′-pyrano[3,2-b]pyridin]-4′-yl)amino)-1-((4-fluorophenyl)methyl)-2-hydroxypropyl)-2-(methyloxy)acetamide]
- IC50 [1, 3]: 3.81 µM
- IC50 [2, 4]: 3.72 µM

Compound: N-((1S,2R)-1-(4-thiazolylmethyl)-3-(((5′S)-3′-(2,2-dimethylpropyl)-5′,8′-dihydro-6′H-spiro[cyclobutane-1,7′-quinolin]-5′-yl)amino)-2-hydroxypropyl)-2-(methyloxy)acetamide [compound 176]
- IC50 [1, 10]: 0.017 µM
- IC50 [2, 4]: 0.0105 µM

Compound: CNc1nc(CC(C)(C)C)cc2c1OC1(CCC1)C[C@@H]2NC[C@@H](O)[C@H](Cc1cccc(F)c1)NC(=O)[C@@H](C)OC [compound 139]
- IC50 [1, 3]: 0.00899 µM
- IC50 [2, 4]: 0.042 µM

Compound: COCC(=O)N[C@@H](Cc1ccccc1)[C@H](O)CN[C@H]1CC2(CCC2)Oc2ncc(CC(C)(C)CF)cc21 [compound 184]
- IC50 [1, 3]: 0.00645 µM
- IC50 [2, 4]: 0.00246 µM

Compound: CO[C@@H](C)C(=O)N[C@@H](Cc1ccc2c(c1)OCO2)[C@H](O)CN[C@H]1CC2(CCC2)Oc2ncc([C@H](F)C(C)(C)C)cc21 [compound 331]
- IC50 [1, 8]: 0.0446 µM
- IC50 [2, 9]: 0.0515 µM

Compound: N-((1S,2R)-1-(1,3-benzodioxol-5-ylmethyl)-3-(((1r,3R,4′S)-6′-(2,2-dimethylpropyl)-3-hydroxy-3′,4′-dihydrospiro[cyclobutane-1,2′-pyrano[2,3-c]pyridin]-4′-yl)amino)-2-hydroxypropyl)acetamide N-((1S,2R)-1-(1,3-benzodioxol-5-ylmethyl)-3-(((1s,3S,4′S)-6′-(2,2-dimethylpropyl)-3-hydroxy-3′,4′-dihydrospiro[cyclobutane-1,2′-pyrano[2,3-c]pyridin]-4′-yl)amino)-2-hydroxypropyl)acetamide [compound 264]
- IC50 [1, 10]: 0.0688 µM
- IC50 [2, 5]: 0.0422 µM

Compound: CO[C@H](C)C(=O)N[C@@H](Cc1ccc2c(c1)OCO2)[C@H](O)CN[C@H]1CC2(CCC2)Oc2c1cc(CC(C)(C)C)nc2N(C)C [compound 135]
- IC50 [1, 3]: 0.175 µM
- IC50 [2, 4]: 0.0647 µM

Compound: CC(=O)N[C@@H](Cc1ccc2c(c1)OCO2)[C@H](O)CN[C@H]1CC2(CCC2)Oc2ncc(C[C@H](C)C(F)(F)F)cc21 [compound 320]
- IC50 [1, 8]: 0.12 µM
- IC50 [2, 9]: 0.155 µM

Compound: CC(C)(C)Cc1cnc2c(c1)[C@@H](NC[C@@H](O)[C@H](Cc1ccc3c(c1)OCO3)NC(=O)CCl)CC1(CCC1)O2 [compound 309]
- IC50 [1, 3]: 0.04 µM
- IC50 [2, 5]: 0.0206 µM

Compound: COCC(=O)N[C@@H](Cc1cccc(-c2nc(C)cs2)c1)[C@H](O)CN[C@H]1CC2(CCC2)Oc2ncc(CC(C)(C)C)cc21 [compound 758]
- IC50 [1, 6]: 0.014 µM

Compound: C#Cc1ccc(C[C@H](NC(=O)COC)[C@H](O)CN[C@H]2CC3(CCC3)Oc3ncc(CC(C)(C)C)cc32)cc1 [Example 885]
- IC50 [1, 11]: 0.099 µM

Compound: C#Cc1cccc(C[C@H](NC(=O)COC)[C@H](O)CN[C@H]2CC3(CCC3)Oc3ncc(CC(C)(C)C)cc32)c1F [compound 911]
- IC50 [1, 11]: 0.144 µM

Compound: COCC(=O)N[C@@H](Cc1ccc(F)cc1)[C@H](O)CN[C@H]1C[C@]2(C[C@@H](C#N)C2)Oc2ncc(CC(C)(C)C)cc21 [compound 261, N-((1S,2R)-3-(((1r,3S,4′S)-3-cyano-6′-(2,2-dimethylpropyl)-3′,4′-dihydrospiro[cyclobutane-1,2′-pyrano[2,3-b]pyridin]-4′-yl)amino)-1-((4-fluorophenyl)methyl)-2-hydroxypropyl)-2-(methyloxy)acetamide]
- IC50 [2, 5]: 0.0389 µM

Compound: CC(=O)NC(Cc1ccc(F)cc1)C(O)CNC1CC2(CC(C#N)C2)Oc2ncc(CC(C)(C)C)cc21 [compound 262, N-((1S,2R)-3-(((1r,3S,4′S)-3-cyano-6′-(2,2-dimethylpropyl)-3′,4′-dihydrospiro[cyclobutane-1,2′-pyrano[2,3-b]pyridin]-4′-yl)amino)-1-((4-fluorophenyl)methyl)-2-hydroxypropyl)acetamide]
- IC50 [2, 5]: 0.0465 µM

Compound: COCC(=O)N[C@@H](Cc1cc(Br)cc(OC)c1)[C@H](O)CN[C@H]1CC2(CCC2)Oc2ncc(CC(C)(C)C)cc21 [compound 917]
- IC50 [2, 7]: 0.014 µM

Compound: COCC(=O)N[C@@H](Cc1cccc(-c2nccs2)c1F)[C@H](O)CN[C@H]1CC2(CCC2)Oc2ncc(CC(C)(C)C)cc21 [compound 908]
- IC50 [1, 11]: 0.1 µM

Compound: CC(=O)N[C@@H](Cc1cccc(F)c1)[C@H](O)CN[C@H]1CC2(CCC2)Oc2ncc([C@@H](F)[C@H](C)C(F)(F)F)cc21 [compound 323]
- IC50 [2, 9]: 0.365 µM

Compound: CCO[C@@H](C)C(=O)N[C@@H](Cc1cccc(-c2nccs2)c1)[C@H](O)CN[C@H]1CC2(CCC2)Oc2ncc(CC(C)(C)C)cc21 [Example 893]
- IC50 [1, 11]: 0.012 µM

Compound: COC(C)C(=O)NC(Cc1ccc2c(c1)OCO2)C(O)CNC1CC2(CC(O)C2)Oc2cnccc21 [compound 245, (2R)—N-((1S,2R)-1-(1,3-benzodioxol-5-ylmethyl)-2-hydroxy-3-(((1r,3R,4′S)-3-hydroxy-3′,4′-dihydrospiro[cyclobutane-1,2′-pyrano[2,3-c]pyridin]-4′-yl)amino)propyl)-2-(methyloxy)propanamide]
- IC50 [2, 5]: 40 µM

Compound: CCO[C@H](C)C(=O)N[C@@H](Cc1cccc(-c2nccs2)c1)[C@H](O)CN[C@H]1CC2(CCC2)Oc2ncc(CC(C)(C)C)cc21 [Example 894]
- IC50 [1, 11]: 0.018 µM

Compound: COCC(=O)N[C@@H](Cc1cccc(-c2ccccn2)c1)[C@H](O)CN[C@H]1CC2(CCC2)Oc2ncc(CC(C)(C)C)cc21 [compound 841, N-((1S,2R)-3-(((4′S)-6′-(2,2-dimethylpropyl)-3′,4′-dihydrospiro[cyclobutane-1,2′-pyrano[2,3-b]pyridin]-4′-yl)amino)-2-hydroxy-1-(3-(2-pyridinyl)benzyl)propyl)-2-methoxyacetamide]
- IC50 [1, 6]: 0.018 µM
